# Test results from patent publication US20050250853A1, “Beta-tubulin inhibitors” (priority 1999, published 2005).
# “Also recorded” adds a separate entry of the source. Where two headings read alike, the source gives them in different places. Marks after values point to notes of the source that are not given here.
# Tests used:
# [1] = test system: MDA-MB-231 cells; experiment: cells; type: cell-based, human; conditions: for IC50: MTT assay, mean ± SD, read-out: IC50 (μM) MDA-MB-231
# Protocol: (§1) Human breast carcinoma cell line, MDA-MB-231, was obtained from the American Type Culture Collection (ATCC HTB-26; Bethesda, Md.). MDA-MB-231 cells were grown in RPMI 1640 medium supplemented with 10% bovine calf serum (Hyclone, Road Logan, Utah). Wild-type Chinese Hamster Ovary cells (CHO-10001) (7), colchicine- and vinblastine-resistant (CHO-VV 3-2) (8) and taxol-resistant (CHO-TAX 5-6) cells (9) were generously provided by Dr. Fernando Cabral (University of Texas Medical School, Houston, Tex.). These cells were cultured in RPMI 1640 containing 10% fetal bovine serum. SK—N—SH human neuroblastoma cells, (ATCC HTB-11; Bethesda, Md.) were cultured in MEM medium supplemented with 2 mM L-glutamine, 1.5 g/liter sodium bicarbonate, 0.1 mM non-essential amino acids, 1 mM sodium pyruvate and 10% fetal bovine serum. Cells were cultured in a humidified atmosphere at 37° C. in 5% CO2.
# (§2) Cytotoxicity was assessed using the MTT assay (3-(4,5-dimethylthiazol-2-yl)-2,5-diphenyltetrazolium bromide) as described by Carmichael et al. (12).
# [2] = Kinetics of alkylation of 4-(4-nitrobenzyl)pyridine (colorimetric assay); type: physicochemical; conditions: 80° C., pH 4.3, absorbance at 570 nm, linear regression, mean ± SD
# Protocol: The rate constant of alkylation (K′) of CEU derivatives and chlorambucil was evaluated by a […] assay as described by Bardos et al (13). Briefly, 1 ml of a 10% (v/v) solution of 4-(4-nitrobenzyl)pyridine in ethanol and 1 ml of 50 mM sodium acetate (pH 4.3) were added to an ethanol solution (95%) containing 400 nmol per ml of either chlorambucil or CEU and heated to 80° C. in a shaking water bath for 60, 90, 120 or 150 min. The reaction was stopped by cooling the mixtures on ice for 5 min. Then, 1.5 ml of 0.1 M KOH: ethanol (1:2, v/v) were added to the reaction mixture. Samples were vortexed for 12 sec and set aside for 2.5 min prior to reading the absorbance at 570 nm. The values were compared with those obtained using a blank sample containing all reagents except the alkylating agent.
# [3] = test system: CHO 10001 cells (wild-type); experiment: MTT cytotoxicity on wild-type CHO cells; type: cell-based, Chinese hamster; conditions: Cricetulus griseus, CHO10001, 120 h, read-out: IC50 CHO 10001
# Protocol: as §1, with “Wild-type Chinese Hamster Ovary cells (CHO-10001) (7), colchicine- and vinblastine-resistant (CHO-VV 3-2) (8) and taxol-resistant (CHO-TAX 5-6) cells (9) were generously provided by Dr. Fernando Cabral (University of Texas Medical School, Houston, Tex.).” left out
# as §2
# (§3) The cytotoxicity of 4-tBCEU, 4-iPCEU and 4-sBCEU in two CHO cell lines having differential sensitivity to antmicrotubule agents was evaluated. These cell lines are derived from parental CHO-10001 cells and express mutated tubulins.
# [4] = test system: CHO TAX 5-6 cells; experiment: MTT cytotoxicity on taxol-resistant CHO cells expressing mutated tubulin; type: cell-based, Chinese hamster; conditions: Cricetulus griseus, CHO-TAX 5-6, 120 h, read-out: IC50 CHO TAX 5-6
# Protocol: as §1, with “Wild-type Chinese Hamster Ovary cells (CHO-10001) (7), colchicine- and vinblastine-resistant (CHO-VV 3-2) (8) and taxol-resistant (CHO-TAX 5-6) cells (9) were generously provided by Dr. Fernando Cabral (University of Texas Medical School, Houston, Tex.).” left out
# as §2, §3
# [5] = test system: CHO VV 3-2 cells; experiment: MTT cytotoxicity on vinblastine- and colchicine-resistant CHO cells expressing mutated tubulin; type: cell-based, Chinese hamster; conditions: Cricetulus griseus, CHO-VV 3-2, 120 h, read-out: IC50 CHO VV 3-2
# Protocol: as §1, with “Wild-type Chinese Hamster Ovary cells (CHO-10001) (7), colchicine- and vinblastine-resistant (CHO-VV 3-2) (8) and taxol-resistant (CHO-TAX 5-6) cells (9) were generously provided by Dr. Fernando Cabral (University of Texas Medical School, Houston, Tex.).” left out
# as §2, §3
# [6] = test system: MDA-MB-231 cells; experiment: Cell cycle analysis by propidium iodide flow cytometry; type: cell-based, human; conditions: CEU derivatives at 30 μM, 24 h; flow cytometry
# Protocol: FIG. 1. Effect of CEU derivatives on cell cycle. Exponentially growing MDA-MB-231 cells were incubated in the absence or presence of 30 μM of either 4-tBCEU, 4-iPCEU or 4-sBCEU for 24 and 48 h, respectively, at 37° C. The cell cycle was evaluated using propidium iodide staining and flow cytometric analysis. Data are representative of three independent experiments.
# Following incubation of MDA-MB-231 cells with 4-tBCEU, 4-iPCEU or 4-sBCEU, the cells were harvested, resuspended in 1 ml PBS and fixed by the addition of 2.4 ml of ice cold anhydrous ethanol. Then, 5×10^5 cells from each sample were centrifuged for 3 min at 1000×g. Cell pellets were resuspended in PBS containing 50 μg/ml of PI and 40 U/ml of ribonuclease A (Boehringer Mannheim, Laval, Calif.). Mixtures were incubated at room temperature for 30 min and cell cycle distribution was analyzed using an Epics Elite ESP flow cytometer (Coulter Corporation, Miami, Fla., USA).
# The effect of CEU, namely 4-tBCEU, 4-PCEU and 4-sBCEU, on the cell cycle was analyzed. To this end, exponentially growing MDA-MB-231 cells were treated with 30 μM 4-tBCEU, 4-iPCEU or 4-sBCEU for 24 or 48 h followed by an evaluation of cell cycle distribution by flow cytometry using propidium iodide, a fluorescent DNA dye. […] Induction of mitosis blockage in prophase by CEU derivatives was confirmed by mitotic index analysis as described by Drouin (22).
# [7] = test system: β-tubulin; experiment: Separation of soluble and polymerized tubulins, Western blot of β-tubulin; type: cell-based, human; conditions: MDA-MB-231 cells, 30 μM, 24 h and 48 h
# Protocol: FIG. 2. Effects of CEU derivatives on microtubule depolymerization. Exponentially growing MDA-MB-231 cells were incubated in the absence or the presence of 30 μM of CEU derivatives including (A) 4-tBCEU, 4-iPCEU or 4-sBCEU for 24 and 48 h respectively; (B) 2-ECEU, 3-ECEU or 4-ECEU for 24 and 48 h; and (C) 4-tBEU, 4-iPEU, 4-sBEU, 4-tBCPU, CEU or 4-methoxyCEU for 48 h. Free tubulin and microtubule fractions were isolated and analyzed by Western blot. Data are representative of three different experiments.
# Separation of soluble and polymerized tubulins from MDA-MB231 cells was carried out as described by Minotti et al. (14) with minor modifications. Briefly, after drug exposure, about 5×10^6 cells in 100-mm petri dishes were washed with PBS at 37° C. and harvested in 3 ml of PBS containing 0.4 μg/ml of taxol using a rubber policeman.
# Cells were centrifuged and lysed using 250 μl of microtubule-stabilizing buffer (20 mM Tris-HCl, pH 6.8, 140 mM NaCl, 1 mM MgCl2, 2 mM EDTA, 0.5% Nonidet P-40 and 0.4 μg/ml taxol), and then transferred to 1.5 ml microcentrifuge tubes. Samples were centrifuged at 12,000×g for 10 min at 4° C. and the supernatants containing soluble tubulin were placed in separate microcentrifuge tubes containing 250 μl of 2× Laemmli sample buffer (15). Pellets containing the polymerized tubulin were resuspended in 250 μl of water, followed by two freeze/thawing cycles, and the addition of 250 μl of 2× Laemmli sample buffer. Samples were analyzed by SDS-PAGE and immunoassay was performed as described below.
# Samples (1×10^5 cells) were analyzed by 10% SDS-PAGE using the Laemmli system (15). Membranes were then incubated with PBSMT (PBS, pH 7.4, 5% fat-free dry milk and 0.1% Tween-20) for 1 h at room temperature, and then with 1:500 monoclonal anti-β-tubulin (clone TUB 2.1, Sigma) or 1:400 anti (clone no. SDL.3D10, Sigma) for 1 h. […] Membranes were washed with PBSMT and incubated with 1:2500 peroxidase-conjugated anti-mouse immunoglobulin (Amersham Canada, Oakville, Canada) in PBSMT for 30 min. Detection of the immunoblot was carried out with the ECL Western blotting detection reagent kit (Amersham Canada, Oakville, Canada).
# [8] = test system: α-tubulin; experiment: Western blot for α-tubulin modification; type: cell-based, human; conditions: data not shown
smiles,measurement,setting,value
"CC(C)(C)c1ccc(NC(=O)NCCCl)cc1 [Example 4-tBCEU, 4-tert-butyl[3-(2-chloroethyl)ureido]benzene]",cytotoxicity in words (active / inactive CEU),[1],active
same,IC50,"[1]; Homo sapiens, MDA-MB-231, concentration inhibiting 50% of cell growth",4 µM
same,IC50,[1]; concentration inhibiting 50% of cell growth,4.6 ± 0.3 µM
same,K′ (constant of alkylation of 4-(4-nitrobenzyl)pyridine),[2],3.1 ± 0.3^a
same,IC50,[3],11.6 ± 0.7 µM
same,IC50,[4],4.6 ± 0.3 µM
same,IC50,[5],21.3 ± 1.1 µM
same,accumulation of cells in G2+M,[6],significant accumulation of cells in the G2+M
same,microtubule depolymerization,[7],complete microtubule depolymerization
same,formation of modified β-tubulin (second immunoreactive band of lower Mr),[7]; free tubulin fraction,second immunoreactive band; also recorded: induced in a dose-dependent manner
same,α-tubulin modification,[8],no electrophoretic evidence for α-tubulin modification
